One assay deals with NCI-H3122. As to the kind of experiment: relative viability (nuclei count vs DMSO), 5 days (fraction); higher = more cells survive. The note with it: first compound 0.253 µM. The procedure, abridged:
(§1)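 Cells from lung cancer lines were seeded into 1536-well plates and, one day later, dosed by pin tool. Treatments were either a single drug or a fixed dose of an anchor drug with five library-drug doses (not always all listed) in √10 steps. After 5 days, nuclei were stained in a one-step fixation (final 0.05% Triton X-100, 1% formaldehyde, 1 ug/ml Hoechst) and counted on 4× images, and relative viability is the treated-to-vehicle nuclei ratio, as the median of duplicate plates.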
The compound `Oc1nc(-c2ccc(C(F)(F)F)cc2)nc2c1CSCC2` [XAV939] + CC(=O)c1c(C)c2cnc(Nc3ccc(N4CCNCC4)cn3)nc2n(C2CCCC2)c1=O [Palbociclib] (partner 0.5 µM) returned a relative viability of 0.196.

`C=C1C(=O)O[C@@H](CCCCCCCC)[C@@H]1C(=O)O` [C-75] + CC(=O)c1c(C)c2cnc(Nc3ccc(N4CCNCC4)cn3)nc2n(C2CCCC2)c1=O [Palbociclib] (partner 0.5 µM) had a relative viability of 0.193.

Staying with this assay, now noted: first compound 0.8 µM.
For `Oc1nc(-c2ccc(C(F)(F)F)cc2)nc2c1CSCC2` [XAV939] + O=C(CCCCCCC(=O)Nc1ccccc1)NO [Vorinostat] (partner 1 µM), the relative viability was determined as 0.904.

`C=C1C(=O)O[C@@H](CCCCCCCC)[C@@H]1C(=O)O` [C-75] + Nc1nc2[nH]cc(CCc3ccc(C(=O)N[C@@H](CCC(=O)O)C(=O)O)cc3)c2c(=O)[nH]1 [Pemetrexed] (partner 0.2 µM) registered a relative viability of 0.181.

For the compound `Oc1nc(-c2ccc(C(F)(F)F)cc2)nc2c1CSCC2` [XAV939] + O=C(c1cc(Cc2n[nH]c(=O)c3ccccc23)ccc1F)N1CCN(C(=O)C2CC2)CC1 [Olaparib] (partner 8 µM), the relative viability is 0.538.

In the case of `Oc1nc(-c2ccc(C(F)(F)F)cc2)nc2c1CSCC2` [XAV939] + CC(=O)c1c(C)c2cnc(Nc3ccc(N4CCNCC4)cn3)nc2n(C2CCCC2)c1=O [Palbociclib] (partner 0.5 µM), the relative viability is 0.184.

`C=C1C(=O)O[C@@H](CCCCCCCC)[C@@H]1C(=O)O` [C-75] + CC(=O)c1c(C)c2cnc(Nc3ccc(N4CCNCC4)cn3)nc2n(C2CCCC2)c1=O [Palbociclib] (partner 0.5 µM) registered a relative viability of 0.153.

Still in this assay, the particulars now being: first compound 2.53 µM.
`Oc1nc(-c2ccc(C(F)(F)F)cc2)nc2c1CSCC2` [XAV939] + O=C(CCCCCCC(=O)Nc1ccccc1)NO [Vorinostat] (partner 1 µM) registered a relative viability of 0.997.

Take `C=C1C(=O)O[C@@H](CCCCCCCC)[C@@H]1C(=O)O` [C-75] + Nc1nc2[nH]cc(CCc3ccc(C(=O)N[C@@H](CCC(=O)O)C(=O)O)cc3)c2c(=O)[nH]1 [Pemetrexed] (partner 0.2 µM): the relative viability is 0.189.

In the case of `Oc1nc(-c2ccc(C(F)(F)F)cc2)nc2c1CSCC2` [XAV939] + O=C(c1cc(Cc2n[nH]c(=O)c3ccccc23)ccc1F)N1CCN(C(=O)C2CC2)CC1 [Olaparib] (partner 8 µM), the relative viability was 0.468.

The compound `Oc1nc(-c2ccc(C(F)(F)F)cc2)nc2c1CSCC2` [XAV939] + CC(=O)c1c(C)c2cnc(Nc3ccc(N4CCNCC4)cn3)nc2n(C2CCCC2)c1=O [Palbociclib] (partner 0.5 µM) displayed a relative viability of 0.153.

As for `C=C1C(=O)O[C@@H](CCCCCCCC)[C@@H]1C(=O)O` [C-75] + CC(=O)c1c(C)c2cnc(Nc3ccc(N4CCNCC4)cn3)nc2n(C2CCCC2)c1=O [Palbociclib] (partner 0.5 µM), the relative viability is 0.18.

Still in this assay, the particulars now being: first compound 8 µM.
Take `C=C1C(=O)O[C@@H](CCCCCCCC)[C@@H]1C(=O)O` [C-75] + Nc1nc2[nH]cc(CCc3ccc(C(=O)N[C@@H](CCC(=O)O)C(=O)O)cc3)c2c(=O)[nH]1 [Pemetrexed] (partner 0.2 µM): the relative viability came to 0.185.

For the compound `C=C1C(=O)O[C@@H](CCCCCCCC)[C@@H]1C(=O)O` [C-75] + CC(=O)c1c(C)c2cnc(Nc3ccc(N4CCNCC4)cn3)nc2n(C2CCCC2)c1=O [Palbociclib] (partner 0.5 µM), the relative viability came to 0.213.

Another assay relates to NCI-H322M. Described as above. To be noted: first compound 0.08 µM. The procedure, abridged: as §1
`Oc1nc(-c2ccc(C(F)(F)F)cc2)nc2c1CSCC2` [XAV939] + O=C(CCCCCCC(=O)Nc1ccccc1)NO [Vorinostat] (partner 1 µM) returned a relative viability of 1.1.

With `C=C1C(=O)O[C@@H](CCCCCCCC)[C@@H]1C(=O)O` [C-75] + Nc1nc2[nH]cc(CCc3ccc(C(=O)N[C@@H](CCC(=O)O)C(=O)O)cc3)c2c(=O)[nH]1 [Pemetrexed] (partner 0.2 µM), the relative viability was 0.633.

`Oc1nc(-c2ccc(C(F)(F)F)cc2)nc2c1CSCC2` [XAV939] + O=C(c1cc(Cc2n[nH]c(=O)c3ccccc23)ccc1F)N1CCN(C(=O)C2CC2)CC1 [Olaparib] (partner 8 µM) yielded a relative viability of 0.874.

Compound `Oc1nc(-c2ccc(C(F)(F)F)cc2)nc2c1CSCC2` [XAV939] + CC(=O)c1c(C)c2cnc(Nc3ccc(N4CCNCC4)cn3)nc2n(C2CCCC2)c1=O [Palbociclib] (partner 0.5 µM) displayed a relative viability of 0.521.

Consider `C=C1C(=O)O[C@@H](CCCCCCCC)[C@@H]1C(=O)O` [C-75] + CC(=O)c1c(C)c2cnc(Nc3ccc(N4CCNCC4)cn3)nc2n(C2CCCC2)c1=O [Palbociclib] (partner 0.5 µM), for which the relative viability worked out at 0.481.

The assay is the same for the next values; noted with them: first compound 0.253 µM.
Turning to `Oc1nc(-c2ccc(C(F)(F)F)cc2)nc2c1CSCC2` [XAV939] + O=C(CCCCCCC(=O)Nc1ccccc1)NO [Vorinostat] (partner 1 µM), the relative viability amounted to 0.805.

Turning to `C=C1C(=O)O[C@@H](CCCCCCCC)[C@@H]1C(=O)O` [C-75] + Nc1nc2[nH]cc(CCc3ccc(C(=O)N[C@@H](CCC(=O)O)C(=O)O)cc3)c2c(=O)[nH]1 [Pemetrexed] (partner 0.2 µM), the relative viability is 0.6.

Consider `Oc1nc(-c2ccc(C(F)(F)F)cc2)nc2c1CSCC2` [XAV939] + O=C(c1cc(Cc2n[nH]c(=O)c3ccccc23)ccc1F)N1CCN(C(=O)C2CC2)CC1 [Olaparib] (partner 8 µM), for which the relative viability came to 0.752.

On to `Oc1nc(-c2ccc(C(F)(F)F)cc2)nc2c1CSCC2` [XAV939] + CC(=O)c1c(C)c2cnc(Nc3ccc(N4CCNCC4)cn3)nc2n(C2CCCC2)c1=O [Palbociclib] (partner 0.5 µM), for which the relative viability came out at 0.464.

Turning to `C=C1C(=O)O[C@@H](CCCCCCCC)[C@@H]1C(=O)O` [C-75] + CC(=O)c1c(C)c2cnc(Nc3ccc(N4CCNCC4)cn3)nc2n(C2CCCC2)c1=O [Palbociclib] (partner 0.5 µM), the relative viability stood at 0.525.

Still in this assay, the particulars now being: first compound 0.8 µM.
The compound `Oc1nc(-c2ccc(C(F)(F)F)cc2)nc2c1CSCC2` [XAV939] + O=C(CCCCCCC(=O)Nc1ccccc1)NO [Vorinostat] (partner 1 µM) showed a relative viability of 0.826.

As to `C=C1C(=O)O[C@@H](CCCCCCCC)[C@@H]1C(=O)O` [C-75] + Nc1nc2[nH]cc(CCc3ccc(C(=O)N[C@@H](CCC(=O)O)C(=O)O)cc3)c2c(=O)[nH]1 [Pemetrexed] (partner 0.2 µM), the relative viability amounted to 0.575.

Turning to `Oc1nc(-c2ccc(C(F)(F)F)cc2)nc2c1CSCC2` [XAV939] + O=C(c1cc(Cc2n[nH]c(=O)c3ccccc23)ccc1F)N1CCN(C(=O)C2CC2)CC1 [Olaparib] (partner 8 µM), the relative viability was 0.667.

In turn, `Oc1nc(-c2ccc(C(F)(F)F)cc2)nc2c1CSCC2` [XAV939] + CC(=O)c1c(C)c2cnc(Nc3ccc(N4CCNCC4)cn3)nc2n(C2CCCC2)c1=O [Palbociclib] (partner 0.5 µM) came in with a relative viability of 0.456.

Take `C=C1C(=O)O[C@@H](CCCCCCCC)[C@@H]1C(=O)O` [C-75] + CC(=O)c1c(C)c2cnc(Nc3ccc(N4CCNCC4)cn3)nc2n(C2CCCC2)c1=O [Palbociclib] (partner 0.5 µM): the relative viability worked out at 0.479.

Still in this assay, the particulars now being: first compound 2.53 µM.
On to `Oc1nc(-c2ccc(C(F)(F)F)cc2)nc2c1CSCC2` [XAV939] + O=C(CCCCCCC(=O)Nc1ccccc1)NO [Vorinostat] (partner 1 µM), for which the relative viability was determined as 0.622.

Consider `Oc1nc(-c2ccc(C(F)(F)F)cc2)nc2c1CSCC2` [XAV939] + O=C(c1cc(Cc2n[nH]c(=O)c3ccccc23)ccc1F)N1CCN(C(=O)C2CC2)CC1 [Olaparib] (partner 8 µM), for which the relative viability stood at 0.661.

For the origin of these results see the supplement of paper PMC10307832.
